According to US4640926A, “3,5-Substituted-2-pyridylalkylaminothiadiazoles having histamine H1 -antagonist activity” (Smith Kline & French Laboratories Limited, priority 1982, dated 1987):

Legend:
histamine H1 -receptor = biological target: T1, histamine H1 -receptor (Cavia porcellus, UniProt P31389); assay: guinea pig ileum test (histamine H1-antagonist activity in vitro); assay type: cell-based; settings: isolated guinea pig ileum, histamine-induced contraction, 8 min contact, 30° C., Schild plot; read-out: pA2 value (converted)
T1 construct: an isolated portion of the guinea pig ileum is secured under tension; from tissue; host or cells: isolated guinea pig ileum
Experimental: In this test an isolated portion of the guinea pig ileum is secured under tension (500 mg) between an anchorage and a transducer in a 10 ml tissue bath and immersed in magnesium free Tyrode solution with constant aeration at a temperature of 30° C. The output from the transducer is amplified. The amplified output is in turn fed to a flat bed recorder. Measured amounts of histamine are added to the tissue bath so that the histamine concentration increases step-wise until the force of the contraction reaches a maximum. The tissue bath is washed out and filled with fresh magnesium free Tyrode solution containing compound under test. The solution is left in contact with the tissue for 8 min. and measured amounts of histamine are added again until a maximum contraction is recorded. The assay is repeated with increasing concentrations of test compound and the dose of histamine giving 50% of maximum contraction is noted. A dose ratio (DR) was calculated by comparing the concentrations of histamine required to produce 50% maximum response in the absence and in the presence of the antagonist. A plot of Log DR-1 against Log D (the concentration of compound under test) is made and the point of intersection with the Log (DR-1) ordinate is taken as the measure of the activity (pA2 value).

histamine H2 -receptor = biological target: T2, histamine H2 -receptor (Cavia porcellus, UniProt P47747); assay: guinea pig atrium test (histamine H2-antagonist activity in vitro); assay type: cell-based; settings: isolated guinea pig right atrium, histamine-stimulated rate of beating, 60 min contact, 37° C., Schild plot; read-out: pA2 value (converted)
T2 construct: isolated portion of the guinea pig right atrium is secured under tension; from tissue; host or cells: isolated guinea pig right atrium
Experimental: The histamine H2 -antagonist activity of the compounds of formula (1) can be determined in vitro in the guinea pig atrium test. In this test a spontaneously beating isolated portion of the guinea pig right atrium is secured under tension (300 mg) between an anchorage and a transducer in a 15 ml tissue bath and immersed in McEwens solution with constant aeration at a temperature of 37° C. The output from the transducer is amplified. Output is in turn fed to a flat bed recorder. Measured amounts of histamine are added to the tissue bath so that the histamine concentration increases step-wise until the rate of beating reaches a maximum. The tissue bath is washed out and filled with fresh McEwens solution containing compound under test. The solution is left in contact with the tissue for 60 min. and measured amounts of histamine are added again until a maximum rate is recorded. The assay is repeated with increasing concentrations of test compound and the dose of histamine giving 50% of maximum rate is noted. A dose ratio (DR) was calculated by comparing the concentrations of histamine required to produce 50% maximum response in the absence and in the presence of the antagonist. A plot of Log DR-1 against Log D (the concentration of compound under test) is made and the point of intersection with the Log (DR-1) ordinate is taken as the measure of the activity (pA2 value).

T2 sequence (P47747 whole entry): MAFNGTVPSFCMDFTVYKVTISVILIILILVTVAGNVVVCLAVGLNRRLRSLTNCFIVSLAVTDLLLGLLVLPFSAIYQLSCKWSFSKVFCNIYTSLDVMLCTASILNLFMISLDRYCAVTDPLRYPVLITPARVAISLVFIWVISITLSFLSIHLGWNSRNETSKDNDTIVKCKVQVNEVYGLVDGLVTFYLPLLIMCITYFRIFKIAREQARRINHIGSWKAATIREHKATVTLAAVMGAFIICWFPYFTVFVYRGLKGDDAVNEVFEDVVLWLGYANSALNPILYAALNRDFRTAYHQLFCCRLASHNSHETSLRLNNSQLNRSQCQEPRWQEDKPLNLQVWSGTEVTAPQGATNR
T1 sequence (P31389 whole entry): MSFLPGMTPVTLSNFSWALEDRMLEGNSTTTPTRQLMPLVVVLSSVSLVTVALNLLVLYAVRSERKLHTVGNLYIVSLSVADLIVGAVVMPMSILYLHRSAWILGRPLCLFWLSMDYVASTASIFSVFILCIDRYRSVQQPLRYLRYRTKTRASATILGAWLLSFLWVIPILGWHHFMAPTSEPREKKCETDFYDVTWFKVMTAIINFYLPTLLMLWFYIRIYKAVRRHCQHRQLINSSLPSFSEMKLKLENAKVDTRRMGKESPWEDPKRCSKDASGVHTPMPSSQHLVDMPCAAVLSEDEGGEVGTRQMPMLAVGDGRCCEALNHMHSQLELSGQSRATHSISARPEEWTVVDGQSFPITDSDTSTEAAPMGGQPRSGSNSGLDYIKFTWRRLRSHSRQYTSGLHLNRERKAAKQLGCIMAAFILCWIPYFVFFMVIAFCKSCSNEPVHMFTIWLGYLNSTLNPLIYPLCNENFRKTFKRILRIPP

Row | Kb (histamine H1 -receptor) | Kb (histamine H2 -receptor) | SMILES
1 | < 0.01 µM | > 10 µM | CNC(=NCCCCc1ncc(Br)cc1C)NC#N [Example 1, N-cyano-N'-methyl-N"-[4-(5-bromo-3-methylpyrid-2-yl)-butyl]-guanidine]
2 | < 0.01 µM | > 10 µM | Cc1cc(Br)cnc1CCCCN=C(NC#N)NCc1ccccc1 [Example 2, N-cyano-N'-benzyl-N"-[4-(5-bromo-3-methylpyrid-2-yl)-butyl]-guanidine]
